# Earlier results as cited in patent US8334403B1, “C-lysine conjugates as pH-controlled, light-activated reagents for double stranded DNA cleavage and associated methods” (Florida State University Research Foundation, Inc., priority 2005, dated 2012).
# Marks after values point to notes of the source that are not given here.
# Conditions: published literature; cited from earlier work
smiles,measurement,value
NCCCC[C@H](N)C(=O)O [Lysine],pKa1,8.95^b
same,pKa2,10.53^b
